# Patent US7968577B2 (Bristol-Myers Squibb Company, priority 2006, dated 2011)
# Key:
# [1] = molecular target: T1, human full-length glucocorticoid receptor (Homo sapiens, UniProt P04150); test: Glucocorticoid Receptor Binding Assay (II), fluorescence polarization competitor kit (Fluormone GS1); conditions: GR Binding Assay (II)
# T1 construct: recombinantly expressed human full-length glucocorticoid receptor; purchased PanVera Co., Madison, Wis; P2816
# T1 sequence (P04150 1-777): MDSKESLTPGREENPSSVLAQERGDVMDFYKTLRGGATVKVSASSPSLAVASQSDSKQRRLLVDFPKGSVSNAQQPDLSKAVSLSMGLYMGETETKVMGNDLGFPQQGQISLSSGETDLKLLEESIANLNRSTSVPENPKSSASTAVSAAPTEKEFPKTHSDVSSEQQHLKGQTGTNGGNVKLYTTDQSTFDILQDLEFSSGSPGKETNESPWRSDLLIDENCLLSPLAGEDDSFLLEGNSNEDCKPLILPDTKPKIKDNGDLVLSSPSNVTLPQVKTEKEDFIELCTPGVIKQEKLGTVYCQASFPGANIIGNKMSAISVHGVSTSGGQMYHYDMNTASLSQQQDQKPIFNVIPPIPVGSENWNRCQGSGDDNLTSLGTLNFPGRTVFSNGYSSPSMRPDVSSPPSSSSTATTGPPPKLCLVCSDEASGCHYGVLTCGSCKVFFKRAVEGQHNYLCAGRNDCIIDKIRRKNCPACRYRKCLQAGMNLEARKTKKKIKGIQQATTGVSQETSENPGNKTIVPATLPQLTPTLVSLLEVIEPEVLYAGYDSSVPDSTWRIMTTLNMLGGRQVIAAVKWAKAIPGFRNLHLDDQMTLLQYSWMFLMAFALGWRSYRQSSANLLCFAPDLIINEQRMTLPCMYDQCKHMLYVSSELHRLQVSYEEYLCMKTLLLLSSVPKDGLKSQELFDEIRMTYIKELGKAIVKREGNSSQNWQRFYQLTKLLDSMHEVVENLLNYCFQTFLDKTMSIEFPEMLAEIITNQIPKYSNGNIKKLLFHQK
# Procedure: Glucocorticoid Receptor Binding Assay (II)^b
# In order to measure the binding of compounds on the glucocorticoid receptor a commercially available kit was used (Glucocorticoid receptor competitor assay kit, PanVera Co., Madison, Wis., P2816). Briefly, a cell lysate containing recombinantly expressed human full-length glucocorticoid receptor was mixed with a fluorescently labeled glucocorticoid (1 nM Fluormone GS1) in the presence or absence of test compound. After one hour at room temperature, the fluorescence polarization (FP) of the samples were measured.
# [2] = system: AP-1 induced transcriptional activity; test: Cellular Transrepressional Assay: AP-1 luciferase reporter in PMA-activated A549 cells; format: cell-based; conditions: Homo sapiens; for Emax: A549, 7 h, maximum inhibition, Cellular Transrepression Assay, read-out: AP-1 Max % inh (Cellular Transrepression Assay); for EC50: A549, Cellular Transrepression Assay
# Outline: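 Compounds tested from 0.1 nM to 40 μM during a 7 h PMA (10 ng/ml) stimulation of A549 cells stably transfected with 7× AP-1 sites driving luciferase. Repression expressed as % reduction of PMA-induced luminescence; EC50 by curve fitting.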
Ki [1],EC50 [2],Structure (SMILES),Emax [2]
71.4 nM,–,"CC(C)(C(=O)Nc1nccs1)[C@@H](c1ccccc1)c1ccc(N2CCOCC2)cc1 (stereo in doubt) [Example 257, 2,2-dimethyl-3-(4-(4-morpholinyl)phenyl)-3-phenyl-N-1,3-thiazol-2-ylpropanamide]",–
190 nM,–,"CC(C)(C(=O)Nc1nncs1)[C@@H](c1ccccc1)c1ccc(N2CCOCC2)cc1 (stereo in doubt) [Example 259, 2,2-dimethyl-3-(4-(4-morpholinyl)phenyl)-3-phenyl-N-1,3,4-thiadiazol-2-ylpropanamide]",–
14.5 nM,–,"CC(C)(C(=O)Nc1nccs1)C(c1ccc(Cl)cc1)c1ccc(N2CCOCC2)cc1 (stereo not drawn) [Example 232, 3-(4-chlorophenyl)-2,2-dimethyl-3-(4-(4-morpholinyl)phenyl)-N-1,3-thiazol-2-ylpropanamide]",–
13.2 nM,–,"CC(C)(C(=O)Nc1nncs1)C(c1ccc(Cl)cc1)c1ccc(N2CCOCC2)cc1 (stereo not drawn) [Example 233, 3-(4-chlorophenyl)-2,2-dimethyl-3-(4-(4-morpholinyl)phenyl)-N-1,3,4-thiadiazol-2-ylpropanamide]",–
408 nM,–,"CC(C)(C)OC(=O)N1CCN(c2ccc(C(c3ccccc3)C(C)(C)C(=O)Nc3nncs3)cc2)CC1 (stereo not drawn) [Example 238, 1,1-dimethylethyl 4-(4-(2,2-dimethyl-3-oxo-1-phenyl-3-(1,3,4-thiadiazol-2-ylamino)propyl)phenyl)-1-piperazinecarboxylate]",–
–,28.1 nM,"CC(C)Oc1ccc(-c2ccc(C(c3ccccc3)C(C)(C)C(=O)Nc3nncs3)cc2)cc1 (stereo not drawn) [Example 382, 2,2-dimethyl-3-(4′-((1-methylethyl)oxy)-4-biphenylyl)-3-phenyl-N-1,3,4-thiadiazol-2-ylpropanamide]",40.1%
–,267 nM,"CC(C)CC(c1ccc(-c2ccc(OC(C)C)cc2)cc1)C(C)(C)C(=O)Nc1nccs1 (stereo not drawn) [Example 400, 2,2,5-trimethyl-3-(4′-((1-methylethyl)oxy)-4-biphenylyl)-N-1,3-thiazol-2-ylhexanamide]",46.1%
–,3.03 nM,"CC(C)(C(=O)Nc1nncs1)C(c1ccccc1)c1ccc(-c2ccc(Cl)cc2)cc1 (stereo not drawn) [Example 403, 3-(4′-chloro-4-biphenylyl)-2,2-dimethyl-3-phenyl-N-1,3,4-thiadiazol-2-ylpropanamide]",24.9%
–,39 nM,"CC(=O)c1ccc(-c2ccc(C(c3ccccc3)C(C)(C)C(=O)Nc3nncs3)cc2)cc1 (stereo not drawn) [Example 406, 3-(4′-acetyl-4-biphenylyl)-2,2-dimethyl-3-phenyl-N-1,3,4-thiadiazol-2-ylpropanamide]",29.4%
–,14.9 nM,"CCc1ccc(-c2ccc(C(c3ccccc3)C(C)(C)C(=O)Nc3nncs3)cc2)cc1 (stereo not drawn) [Example 407, 3-(4′-ethyl-4-biphenylyl)-2,2-dimethyl-3-phenyl-N-1,3,4-thiadiazol-2-ylpropanamide]",37.5%
–,2.7 nM,"CC(C)c1ccc(-c2ccc(C(c3ccccc3)C(C)(C)C(=O)Nc3nncs3)cc2)cc1 (stereo not drawn) [Example 422, 3-(4′-isopropyl-4-biphenylyl)-2,2-dimethyl-3-phenyl-N-1,3,4-thiadiazol-2-ylpropanamide]",33.7%
–,3.63 nM,"CC(C)(C(=O)Nc1nncs1)C(c1ccccc1)c1ccc(-c2ccc(C(=O)NC3CC3)cc2)cc1 (stereo not drawn) [Example 425, N-cyclopropyl-4′-(2,2-dimethyl-3-oxo-1-phenyl-3-(1,3,4-thiadiazol-2-ylamino)propyl)-4-biphenylcarboxamide]",28.7%

# The remaining lines, values behind:
Structure (SMILES),Ki [1],EC50 [2],Emax [2]
"COc1ccc(C(c2ccc(OC)cc2)C(C)(C)C(=O)Nc2nccs2)cc1 [Example 69, 2,2-dimethyl-3,3-bis(4-(methyloxy)phenyl)-N-1,3-thiazol-2-ylpropanamide]",67.2 nM,–,–
"CC(C)(C(=O)Nc1nccs1)C(c1ccc(F)cc1)c1ccc(N2CCOCC2)cc1 (stereo not drawn) [Example 222, 3-(4-Fluorophenyl)-2,2-dimethyl-3-(4-(4-morpholinyl)phenyl)-N-1,3-thiazol-2-ylpropanamide]",12.6 nM,–,–
"Cc1ccc(C(c2ccc(N3CCOCC3)cc2)C(C)(C)C(=O)Nc2nncs2)cc1 (stereo not drawn) [Example 226, 2,2-dimethyl-3-(4-methylphenyl)-3-(4-(4-morpholinyl)phenyl)-N-1,3,4-thiadiazol-2-ylpropanamide]",9.4 nM,–,–
"CC(C)(C(=O)Nc1nncs1)C(c1ccc(F)cc1)c1ccc(N2CCOCC2)cc1 (stereo not drawn) [Example 231, 3-(4-fluorophenyl)-2,2-dimethyl-3-(4-(4-morpholinyl)phenyl)-N-1,3,4-thiadiazol-2-ylpropanamide]",18.2 nM,–,–
"CC(C)(C(=O)Nc1nncs1)C(c1ccccc1)c1ccc(N2CCCC2)cc1 (stereo not drawn) [Example 237, 2,2-dimethyl-3-phenyl-3-(4-(1-pyrrolidinyl)phenyl)-N-1,3,4-thiadiazol-2-ylpropanamide]",13.6 nM,–,–
"COc1ccc(-c2ccc(C(c3ccccc3)C(C)(C)C(=O)Nc3nncs3)cc2)cc1 (stereo not drawn) [Example 378, 2,2-dimethyl-3-(4′-(methyloxy)-4-biphenylyl)-3-phenyl-N-1,3,4-thiadiazol-2-ylpropanamide]",–,894 nM,26.2%
"CC(C)CC(c1ccc(-c2ccc(OC(C)C)cc2)cc1)C(C)(C)C(=O)Nc1nncs1 (stereo not drawn) [Example 395, 2,2,5-trimethyl-3-(4′-((1-methylethyl)oxy)-4-biphenylyl)-N-1,3,4-thiadiazol-2-ylhexanamide]",–,13.4 nM,32.5%
"CC(C)Cc1ccc(-c2ccc(C(CC(C)C)C(C)(C)C(=O)Nc3nccs3)cc2)cc1 (stereo not drawn) [Example 396, 2,2,5-trimethyl-3-(4′-(2-methylpropyl)-4-biphenylyl)-N-1,3-thiazol-2-ylhexanamide]",–,227 nM,31.5%
"CCCc1ccc(-c2ccc(C(CC(C)C)C(C)(C)C(=O)Nc3nccs3)cc2)cc1 (stereo not drawn) [Example 398, 2,2,5-trimethyl-3-(4′-propyl-4-biphenylyl)-N-1,3-thiazol-2-ylhexanamide]",–,70 nM,28.2%
"CC(C)(C(=O)Nc1nncs1)C(c1ccccc1)c1ccc(-c2ccc(C(=O)N3CCOCC3)cc2)cc1 (stereo not drawn) [Example 401, 2,2-dimethyl-3-(4′-(4-morpholinylcarbonyl)-4-biphenylyl)-3-phenyl-N-1,3,4-thiadiazol-2-ylpropanamide]",–,13.3 nM,47%
"CC(C)(C(=O)Nc1nncs1)C(c1ccccc1)c1ccc(-c2ccccc2)cc1 (stereo not drawn) [Example 402, 3-(4-biphenylyl)-2,2-dimethyl-3-phenyl-N-1,3,4-thiadiazol-2-ylpropanamide]",–,7.9 nM,26.5%
"CC(C)(C(=O)Nc1nncs1)C(c1ccccc1)c1ccc(-c2ccc(-c3ccccc3)cc2)cc1 (stereo not drawn) [Example 404, 2,2-dimethyl-3-phenyl-3-(1,1′:4′,1″- terphenyl-4-yl)-N-1,3,4-thiadiazol-2-ylpropanamide]",–,9.57 nM,21.9%
"CC(C)(C(=O)Nc1nncs1)C(c1ccccc1)c1ccc(-c2ccc(OC(F)(F)F)cc2)cc1 (stereo not drawn) [Example 405, 2,2-dimethyl-3-phenyl-N-1,3,4-thiadiazol-2-yl-3-(4′-(trifluoromethoxy)-4-biphenylyl)propanamide]",–,24.6 nM,35.2%
"COCc1ccc(-c2ccc(C(c3ccccc3)C(C)(C)C(=O)Nc3nncs3)cc2)cc1 (stereo not drawn) [Example 408, 3-(4′-(methoxymethyl)-4-biphenylyl)-2,2-dimethyl-3-phenyl-N-1,3,4-thiadiazol-2-ylpropanamide]",–,39.8 nM,24.9%
"CC(C)c1cccc(-c2ccc(C(c3ccccc3)C(C)(C)C(=O)Nc3nncs3)cc2)c1 (stereo not drawn) [Example 423, 3-(3′-isopropyl-4-biphenylyl)-2,2-dimethyl-3-phenyl-N-1,3,4-thiadiazol-2-ylpropanamide]",–,6.07 nM,34.8%
"CC(C)(C)NC(=O)c1ccc(-c2ccc(C(c3ccccc3)C(C)(C)C(=O)Nc3nncs3)cc2)cc1 (stereo not drawn) [Example 424, N-tert-butyl-4′-(2,2-dimethyl-3-oxo-1-phenyl-3-(1,3,4-thiadiazol-2-ylamino)propyl)-4-biphenylcarboxamide]",–,14.5 nM,26.4%
"CCCCOc1ccc(-c2ccc(C(CC(C)C)C(C)(C)C(=O)Nc3nncs3)cc2)cc1 (stereo not drawn) [Example 442, 3-(4′-butoxy-4-biphenylyl)-2,2,5-trimethyl-N-1,3,4-thiadiazol-2-ylhexanamide]",–,11.7 nM,22.7%
